Reference: patent US20200017496A1 (priority 2017, published 2020)
Values joined by “and” are separate entries in the source; they are usually repeats but may differ in a detail not shown here. Identical values can stand only once. Like-named read-outs stand apart in the source and are kept apart here.

What was measured:
Assay in all cases: MIC of compounds alone and combined with antibacterials, broth microdilution (CLSI)
Type in all cases: cell-based
[1] = test system: Citrobacter koseri (CKR) isolates; settings: for MIC ATB in combination: AF1 @ 4 μg/mL; for MIC: Citrobacter koseri
Method in brief: (§1)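 Compound MIC, and antibacterial MIC at each fixed compound level, taken by visual inspection as lowest concentration stopping growth. Inoculum: log-phase bacteria, final 5·10^5 CFU/mL, cation-adjusted Mueller-Hinton broth; 16-20 h, 35° C, ambient air.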

[2] = test system: Enterobacter aerogenes (EAE) isolates
Method in brief: as §1

[3] = test system: Klebsiella oxytoca (KOX) isolates; settings: for MIC ATB in combination: AF1 @ 4 μg/mL; for MIC: Klebsiella oxytoca
Method in brief: as §1

[4] = test system: Morganella morganii (MMO) isolates; settings: for MIC: Morganella morganii
Method in brief: as §1

[5] = test system: Providencia rettgeri (PRE) isolates; settings: for MIC: Providencia rettgeri
Method in brief: as §1

[6] = test system: Providencia stuartii (PST) isolates; settings: for MIC ATB in combination: AF1 @ 4 μg/mL
Method in brief: as §1

[7] = test system: Serratia marcescens (SMA) isolates
Method in brief: as §1

CC1(C)S[C@@H]2[C@H](NC(=O)[C@H](N)c3ccc(O)cc3)C(=O)N2[C@H]1C(=O)O [AMX, Amoxicillin]
MIC ATB in combination ([1]; CKO ROU): 32 µg/mL | MIC ATB in combination ([1]; CKO UFR149): 512 µg/mL | MIC ATB in combination ([1]; CKO UFR150): 64 µg/mL | MIC ([1]; strain CKO ROU (TEM-1, SHV-12, CTX-M-15, OXA-1, OXA-48), ATB alone): > 256 µg/mL | MIC ([1]; strain CKO ROU (TEM-1, SHV-12, CTX-M-15, OXA-1, OXA-48), CLA @ 4 μg/ml+ ATB): > 128 µg/mL | MIC ([1]; strain CKO UFR149 (OXA-48), ATB alone): > 128 µg/mL | MIC ([1]; strain CKO UFR149 (OXA-48), CLA @ 4 μg/ml+ ATB): > 128 µg/mL | MIC ([1]; strain CKO UFR150 (TEM-1, OXA-48), ATB alone): > 128 µg/mL | MIC ([1]; strain CKO UFR150 (TEM-1, OXA-48), CLA @ 4 μg/ml+ ATB): > 128 µg/mL | MIC [2]: >256 µg/mL | MIC ATB in combination [2]: 128 µg/mL | MIC ATB in combination ([2]; EAE UFR199, AF1 @ 4 μg/mL): 64 µg/mL | MIC ATB in combination ([2]; EAE UFR201, AF1 @ 4 μg/mL): <=1 μg/mL | MIC ATB in combination ([2]; EAE UFR202, AF1 @ 4 μg/mL): 64 µg/mL | MIC ATB in combination ([2]; EAE UFR213, AF1 @ 4 μg/mL): 32 µg/mL | MIC ([2]; Klebsiella aerogenes): > 128 µg/mL | MIC ([2]; Klebsiella aerogenes, strain EAE 49469 (AmpC), ATB alone, read-out: MIC): > 1020 µg/mL | MIC ([2]; Klebsiella aerogenes, strain EAE UFR201 (TEM-1, SHV-12, CTX-M-15), CLA @ 4 μg/ml+ ATB, read-out: MIC): 16 µg/mL | MIC ATB in combination ([3]; KOX UFR21): 256 µg/mL | MIC ATB in combination ([3]; KOX UFR173): 4 µg/mL | MIC ATB in combination ([3]; KOX UFR223): 16 µg/mL | MIC ATB in combination ([3]; KOX UFR224): 64 µg/mL | MIC [3]: > 128 µg/mL | MIC ([3]; strain KOX UFR21 (TEM-1, CTX-M-15, OXA-48), ATB alone): > 256 µg/mL | MIC ([3]; strain KOX UFR21 (TEM-1, CTX-M-15, OXA-48), CLA @ 4 μg/ml+ ATB): > 128 µg/mL | MIC ([3]; strain KOX UFR223 (SHV-11, OXA-48), ATB alone): > 128 µg/mL | MIC ([3]; strain KOX UFR223 (SHV-11, OXA-48), CLA @ 4 μg/ml+ ATB): > 128 µg/mL | MIC ([3]; strain KOX UFR224 (CTX-M-15, OXA-48), ATB alone): > 128 µg/mL | MIC ([3]; strain KOX UFR224 (CTX-M-15, OXA-48), CLA @ 4 μg/ml+ ATB): > 128 µg/mL | MIC ATB in combination [4]: 128 µg/mL | MIC ATB in combination ([4]; MMO 200321, AF1 @ 4 μg/mL): 256 µg/mL | MIC ATB in combination ([4]; MMO UFR240, AF1 @ 4 μg/mL): 32 µg/mL | MIC ATB in combination ([4]; MMO UFR243, AF1 @ 4 μg/mL): 64 µg/mL | MIC ATB in combination ([4]; MMO UFR244, AF1 @ 4 μg/mL): 64 µg/mL | MIC ATB in combination ([4]; MMO UFR245, AF1 @ 4 μg/mL): 64 µg/mL | MIC ATB in combination ([4]; MMO UFR246, AF1 @ 4 μg/mL): 64 µg/mL | MIC ATB in combination ([4]; MMO UFR247, AF1 @ 4 μg/mL): 32 µg/mL | MIC [4]: > 128 µg/mL | MIC ([4]; strain MMO 200321 (TEM-1, CTX-M-15, OXA-1), ATB alone): > 256 µg/mL | MIC ([4]; strain MMO 200321 (TEM-1, CTX-M-15, OXA-1), CLA @ 4 μg/ml+ ATB): > 128 µg/mL | MIC ([4]; strain MMO UFR144 (TEM-1, CTX-M-15), ATB alone): > 128 µg/mL | MIC ([4]; strain MMO UFR144 (TEM-1, CTX-M-15), CLA @ 4 μg/ml+ ATB): > 128 µg/mL | MIC ([4]; strain MMO UFR240 (CTX-M-9), ATB alone): > 128 µg/mL | MIC ([4]; strain MMO UFR240 (CTX-M-9), CLA @ 4 μg/ml+ ATB): > 128 µg/mL | MIC ([4]; strain MMO UFR241 (TEM-1, CTX-M-15), ATB alone): > 128 µg/mL | MIC ([4]; strain MMO UFR241 (TEM-1, CTX-M-15), CLA @ 4 μg/ml+ ATB): > 128 µg/mL | MIC ([4]; strain MMO UFR242 (TEM-52), ATB alone): > 128 µg/mL | MIC ([4]; strain MMO UFR242 (TEM-52), CLA @ 4 μg/ml+ ATB): > 128 µg/mL | MIC ATB in combination ([5]; PRE UFR99, AF1 @ 4 μg/mL): >512 µg/mL | MIC ([5]; ATB combined with CLA @ 4 μg/ml, strain PRE UFR236 (TEM-1, OXA-48)): > 128 µg/mL | MIC ([5]; strain PRE UFR99 (OXA-1, OXA-181), ATB alone): > 128 µg/mL | MIC ([5]; strain PRE UFR99 (OXA-1, OXA-181), CLA @ 4 μg/ml+ ATB): > 128 µg/mL | MIC ([5]; ATB alone, strain PRE UFR236 (TEM-1, OXA-48)): > 128 µg/mL | MIC ATB in combination ([5]; strain PRE UFR236, antibacterial combined with AF1 @ 4 μg/mL): 512 µg/mL | MIC [6]: 128 µg/mL | MIC ATB in combination ([6]; PST UFR94): 16 µg/mL | MIC ATB in combination ([6]; PST UFR95): 32 µg/mL | MIC ATB in combination ([6]; PST UFR235): 32 µg/mL | MIC ([6]; Providencia stuartii): > 128 µg/mL | MIC [7]: 128 µg/mL and >256 µg/mL | MIC ATB in combination [7]: 128 µg/mL | MIC ATB in combination ([7]; SMA UFR30, AF1 @ 4 μg/mL): 256 µg/mL | MIC ATB in combination ([7]; SMA UFR135, AF1 @ 4 μg/mL): 256 µg/mL | MIC ATB in combination ([7]; SMA UFR136, AF1 @ 4 μg/mL): 256 µg/mL | MIC ATB in combination ([7]; SMA UFR137, AF1 @ 4 μg/mL): 64 µg/mL | MIC ATB in combination ([7]; SMA UFR138, AF1 @ 4 μg/mL): 64 µg/mL | MIC ATB in combination ([7]; SMA UFR139, AF1 @ 4 μg/mL): 64 µg/mL | MIC ATB in combination ([7]; SMA UFR143, AF1 @ 4 μg/mL): 256 µg/mL | MIC ATB in combination ([7]; SMA UFR239, AF1 @ 4 μg/mL): 64 µg/mL | MIC ([7]; Serratia marcescens): > 128 µg/mL | MIC ([7]; Serratia marcescens, strain SMA UFR239 (ESAC), CLA @ 4 μg/ml+ ATB, read-out: MIC): 64 µg/mL
